Patent publication EP0678516B1, “Preparation of 2-bromo-5-(2-bromo-2-nitrovinyl)-furan and its use as microcide” (CENTRO DE BIOACTIVOS QUIMICOS DE LA UNIVERSIDAD CENTRAL DE …, priority 1994, dated 1995)

Tests used:
[1] = system: Bovine infectious queratoconjunctivitis; assay: Clinical test, external treatment of eye infections in animals; assay type: in vivo; details: Cows (PE), small scale controlled clinical test
Excerpt: (§1) The effectiveness of the active principle against bacterial eye diseases in: 9435 animal eyes affected with queratoconjunctivitis; 8093 of cattle and 1342 of other species (sheep, rabbits, dogs, horses, pigs, cats, guinea-pigs and birds).
(§2) In some cases the result of the medicament was compared with others habitually used for these treatments.
(§3) Read: 1 = Bovine infectious queratoconjunctivitis (PE) = small scale or clinical test in conditions controlled on a small scale (U) = ointment (I) = injectable n = number of eyes treated P± = Average of treatment for clinical recuperation (weighted average) Rc = clinical recuperation 2 = conjunctivitis 3 = Querratitis 4= Queratoconjunctivitis 5= Blefaritis 6= general eye infection 7= clinical extension or test compared in conditions of extension (*) = Massive application in therapeutic survey in the new different animal species (G-1) = refers to 2-bromo-5-(2-bromo-2-nitro-vinyl)-furan

[2] = system: conjunctivitis and Blefaritis; assay: as above; assay type: in vivo; details: Rabbits
Excerpt: as §1, §2, §3

[3] = system: conjunctivitis, Querratitis, Queratoconjunctivitis; assay: as above; assay type: in vivo; details: Dogs
Excerpt: as §1, §2, §3

[4] = system: Bovine infectious queratoconjunctivitis; assay: Clinical test, external treatment of eye infections in animals (extension); assay type: in vivo; details: Cattle (E)
Excerpt: as §1, §2, §3

[5] = system: septic puerperal metritis; assay: Treatment of septic puerperal metritis; assay type: in vivo, female oxes; details: G-1 1.5% oil solution intrauterine, Tetracycline abdominal aorta route
Description: The treatment consisted in applying 40 ml for three consecutive days at intervals of 24 hours from the diagnosis of the disease process. Treatment was compared with intrasoric tetracyclin.

[6] = system: Streptococcus agalactiae and Staphylococcus aureus; assay: Intracisternal treatment of clinical mastitis; assay type: in vivo, femal oxes
Excerpt: The active principle in a concentration of 0.1 % is applied by intracisternal route daily for three consecutive days in femal oxes clinically affected by mastitis of morbid catarrh purulen course types, in which the isolated micro-organisms were Streptococcus agalactiae and Staphylococcus aureus. As a control medicament the mammary infusion of neomicine was used.

Compound: O=C(N[C@H](CO)[C@H](O)c1ccc([N+](=O)[O-])cc1)C(Cl)Cl [Chloran-fenicol-(I), Chloran-fenicol]
- P± (Average of treatment for clinical recuperation, weighted average) [1]: 3.1ab
- Re (clinical recuperation) [1]: 80.6ba %

Compound: O=C(N[C@H](CO)[C@H](O)c1ccc([N+](=O)[O-])cc1)C(Cl)Cl [Chloran-fenicol-(U), Chloran-fenicol]
- P± (Average of treatment for clinical recuperation, weighted average) [2]: 3.2a
- P± (Average of treatment for clinical recuperation, weighted average) [3]: 7.3b
- Re (clinical recuperation) [3]: 81.5a %
- P± (Average of treatment for clinical recuperation, weighted average) [4]: 3.4a
- Re (clinical recuperation) [4]: 86.6a %

Compound: CN(C)[C@@H]1C(O)=C(C(N)=O)C(=O)[C@@]2(O)C(O)=C3C(=O)c4c(O)cccc4[C@@](C)(O)[C@H]3C[C@@H]12 [Tetracycline, reference compound]
- Recuperated n ([5]; 27 females, 19 females): 13
- IIA (Artificial insemination index) [5]: 1.78± 1.99b
- Recuperated % [5]: 68.4%
- T-R (Average of treatment interval of clinical recuperation) [5]: 39 days
- IIA (Artificial insemination index) ([5]; listed as tetracycline): 1.78 ± 1.99

Compound: neomicine [reference compound]
- Recuperated n (affected parts) ([6]; G-I 0.1% intracisternal daily for three days (57 parts), neomicine mammary infusion (12 parts)): 12
- Recuperated % (clinical recuperation of the affected parts) ([6]; G-I 0.1% intracisternal daily for three days, neomicine mammary infusion): 100%
